{"source": "patent US12128024B2", "about": "(GEORGETOWN UNIVERSITY, priority 2004, dated 2024)", "key": {"[1]": {"system": "MJ, HTLV-I positive cutneous T cell leukemia line", "assay": "Trypan blue viability of HTLV-I positive lymphoid cell line (FIG. 5)", "type": "cell-based", "conditions": "Primate T-lymphotropic virus 1, T-cell; 6.25 μM DHA; MJ cells; read-out: cells killed (viability as % of controls, trypan blue)", "method": "(§1) One cell line, referred to as MJ, is an HTLV-I positive cutneous T cell leukemia line and the other cell line, referred to Namalwa, is an EBV positive Burkitt's lymphoma B cell line.\n(§2) The cell lines were maintained in culture, using RPMI 1640 medium, supplemented with 10% fetal bovine serum and antibiotics. For the assay, 100,000 cells, in volumes of 100 μl medium, were placed in micro-titer wells; an additional 100 μl medium, containing 0 μM, 6.25 μM, 12.5 μM, 25 μM, 50 μM, 100 μM and 200 μM concentrations of DHA, were added. The negative controls contained medium only. The DHA stock (20 mM) was used to dilute the drug in concentrations ranging from 0 to 200 μM. All experiments were performed in triplicate. After incubation at 37° C. and 5% CO2, for various time periods, the cells were counted in a hemocytometer in the presence of trypan blue. Viability was expressed, as % of controls (no drug)."}, "[2]": {"system": "Namalwa, EBV positive Burkitt's lymphoma B cell line", "assay": "Trypan blue viability of EBV positive lymphoid cell line (FIG. 4)", "type": "cell-based", "conditions": "human gammaherpesvirus 4, B-cell; 6.25 μM DHA; Namalwa cells; read-out: cells killed (viability as % of controls, trypan blue)", "method": "as §1, §2"}, "[3]": {"system": "HeLa cells", "assay": "Viability dose-response of HeLa cells (FIG. 3)", "type": "cell-based", "conditions": "25 μM DHA"}, "[4]": {"system": "cervical cancer cell lines (HeLa, SiHa, Caski)", "assay": "Viability dose-response of cervical cancer cell lines (FIG. 3)", "type": "cell-based", "conditions": "72 h, 25 μM DHA, within 3 days of treatment, read-out: loss of viability"}, "[5]": {"conditions": "cited from earlier work"}, "[6]": {"system": "cervical cancer cell lines", "assay": "Morphology of cervical cancer cell lines after artemisinin treatment (phase contrast microscopy, FIG. 2)", "type": "cell-based", "conditions": "25 μM artemisinin, 3 days, vs control solvent"}, "[7]": {"system": "normal cervical cells (HCX)", "assay": "Morphology of normal cervical cells after artemisinin treatment (phase contrast microscopy, FIG. 2)", "type": "cell-based", "conditions": "25 μM artemisinin, 3 days, vs control solvent"}}, "data": [{"smiles": "C[C@H]1[C@@H](O)O[C@@H]2O[C@@]3(C)CC[C@H]4[C@H](C)CC[C@@H]1[C@@]24OO3", "note": "[DHA, dihydroartemisinin]", "values": [{"measurement": "cytotoxicity at 6.25 µM", "setting": "[1]", "value": "~60", "unit": "%"}, {"measurement": "cytotoxicity at 6.25 µM", "setting": "[2]", "value": "~60", "unit": "%"}, {"measurement": "cell death", "setting": "[3]", "value": 95, "unit": "%"}, {"measurement": "cytotoxicity at 25 µM", "setting": "[4]", "value": 80, "unit": "%"}, {"measurement": "solubility in water compared with artemisinin", "setting": "[5]", "value": "higher solubility in water"}]}, {"smiles": "CCO[C@H]1O[C@@H]2O[C@@]3(C)CC[C@H]4[C@H](C)CC[C@@H]([C@H]1C)[C@@]24OO3", "note": "[arteether]", "values": [{"measurement": "solubility in water compared with artemisinin", "setting": "[5]", "value": "higher solubility in water"}]}, {"smiles": "C[C@H]1[C@@H](OCc2ccc(C(=O)O)cc2)O[C@@H]2O[C@@]3(C)CC[C@H]4[C@H](C)CC[C@@H]1[C@@]24OO3", "note": "[artelinic acid]", "values": [{"measurement": "solubility in water compared with artemisinin", "setting": "[5]", "value": "higher solubility in water"}]}, {"smiles": "CO[C@H]1O[C@@H]2O[C@@]3(C)CC[C@H]4[C@H](C)CC[C@@H]([C@H]1C)[C@@]24OO3", "note": "[artemether]", "values": [{"measurement": "solubility in water compared with artemisinin", "setting": "[5]", "value": "higher solubility in water"}]}, {"smiles": "C[C@@H]1CC[C@H]2[C@@H](C)C(=O)O[C@@H]3O[C@@]4(C)CC[C@@H]1[C@]32OO4", "note": "[artemisinin]", "values": [{"measurement": "change in morphology of cervical cancer cells", "setting": "[6]", "value": "rounded up and detached from the tissue culture plate"}, {"measurement": "change in morphology of normal cervical cells (HCX)", "setting": "[7]", "value": "little change in morphology"}]}, {"smiles": "CCCOC(=O)OC1O[C@@H]2O[C@@]3(C)CC[C@H]4[C@H](C)CC[C@@H]([C@H]1C)[C@@]24OO3", "note": "(some centres unmarked) [propylcarbonate dihydroartemisinin]", "values": [{"measurement": "solubility in water compared with artemisinin", "setting": "[5]", "value": "higher solubility in water"}]}]}
